Laboratory results as given in patent US20260007681A1, “INDOLE DERIVATIVES AS ESTROGEN RECEPTOR DEGRADERS” (REGENTS OF THE UNIVERSITY OF MICHIGAN, priority 2022, published 2026).
Like-named read-outs stand apart in the source and are kept apart here.

Assays:
CRBN/DDB1 = CRBN/DDB1 (Homo sapiens (Human), UniProt Q96SW2); format: binding; details: His tagged CRBN+DDB-DLS7+CXU4, Cy5-labeled Thalidomide probe, one hour incubation; read-out: CRBN HTRF IC50
Method: The binding potency was determined using H-TRF assay technology (Perkin Elmer). Compounds were serially diluted in DMSO and 0.2 μL volume was transferred to white 384-well plate.

ER in T47D cells = ER in T47D cells (Homo sapiens (Human), UniProt P03372); experiment: In-cell western (ICW) ER degradation assay in T47D cells (Compounds A1-A70); format: cell-based; details: for DC50: ER degradation, 0.02 to 300 nM; for Dmax: T47D, read-out: T47D ICW Dmax (%)
Method: (§1) ERa degradative activity of compounds can be assessed in MCF-7 and T47D Cells. MCF-7 and T47D cell are seeded and are subsequently treated with the compounds at certain concentrations (e.g., 0.02 to 300 nM). DMSO can be used as vehicle control. Cells are fixed and are blocked with Intercept (PBS) Blocking Buffer (e.g., Li—COR, Odyssey Blocking Buffer), and are stained with ER (e.g., 1:500, Cell signaling) primary antibody for overnight at cold room. Secondary Antibody (e.g., IRDye 800CW Goat anti-Rabbit IgG) and CellTag 700 Stain are added in Intercept (PBS) Blocking Buffer. Finally, cell plate is placed in incubator to dry. Image and signal are captured on Odyssey® DLx Imaging System.
(§2) Day 3: After 16 hrs of compounds treatment, cells were fixed by 4% PFA and permeabilized with elution buffer (0.1% Triton X-100 in 1% PBS Solution). Subsequently, cells were blocked with Intercept (PBS) Blocking Buffer (Li—COR, Odyssey Blocking Buffer), and were stained with ER (1:500, Cell signaling) primary antibody for overnight at cold room.
(§3) Day 4: Remove the buffer, add IRDye 800CW Goat anti-Rabbit IgG Secondary Antibody (1:2000) and CellTag 700 Stain (1:500) in Intercept (PBS) Blocking Buffer. Finally, cell plate is placed in incubator to dry. Image and signal were captured on Odyssey® DLx Imaging System.

ER in MCF-7 cells = ER in MCF-7 cells (Homo sapiens (Human), UniProt P03372); experiment: In-cell western (ICW) ER degradation assay in MCF-7 cells (Compounds A1-A70); format: cell-based; details: for DC50: ER degradation, MCF-7 cells, 16 hrs treatment, 0.02 to 300 nM, read-out: MCF7 ICW DC50; for Dmax: MCF7, read-out: MCF7 ICW Dmax (%)
Method: as §1, §2, §3

[1] = Cell growth assay (WST-8) (Compounds B1-B278); format: cell-based; details: 96 h; T47D cell line; WST-8, 4 days; read-out: Cell Growth Inhibition in T47D cell line IC50
In short: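 Read-out is WST-8 absorbance at 450 nm (2.5 h, 37° C) as a fraction of vehicle control, from three separate repeats. Compound exposure lasted 4 days, starting one day after plating 1500 cells/well.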

ER = ER (Homo sapiens (Human), UniProt P03372); experiment: In-cell western blot analysis of relative ER percentage (Compounds B1-B278); format: cell-based; details: ER degradation, 16 hours, read-out: ICW DC50
In short: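 In-cell western: after 16 h compound exposure (0.5% DMSO final), fixed and permeabilized cells are probed with anti-ER plus anti-GAPDH and near-infrared secondaries. Relative ER percentage compares treated wells against untreated and DMSO wells taken as 100%; seeding 40,000 or 10,000 cells/well.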

Chain of ER in MCF-7 cells (P03372 whole entry): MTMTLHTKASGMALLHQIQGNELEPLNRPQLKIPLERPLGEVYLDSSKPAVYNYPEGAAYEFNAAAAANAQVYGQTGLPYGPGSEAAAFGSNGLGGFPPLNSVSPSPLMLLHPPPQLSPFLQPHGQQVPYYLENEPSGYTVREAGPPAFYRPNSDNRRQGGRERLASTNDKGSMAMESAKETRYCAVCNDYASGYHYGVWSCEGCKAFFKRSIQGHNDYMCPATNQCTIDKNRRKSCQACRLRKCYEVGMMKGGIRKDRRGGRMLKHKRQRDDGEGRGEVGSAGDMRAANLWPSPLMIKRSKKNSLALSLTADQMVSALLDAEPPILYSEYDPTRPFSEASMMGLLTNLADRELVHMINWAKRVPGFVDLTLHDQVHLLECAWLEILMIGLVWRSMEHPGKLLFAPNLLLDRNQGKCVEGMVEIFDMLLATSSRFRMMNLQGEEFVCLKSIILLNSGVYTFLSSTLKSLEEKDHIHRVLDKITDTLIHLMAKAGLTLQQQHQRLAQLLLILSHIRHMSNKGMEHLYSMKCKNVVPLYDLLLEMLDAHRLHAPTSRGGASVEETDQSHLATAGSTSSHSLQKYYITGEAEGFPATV
Chain of ER in T47D cells (P03372 whole entry): as above
Chain of CRBN/DDB1 (Q96SW2 whole entry): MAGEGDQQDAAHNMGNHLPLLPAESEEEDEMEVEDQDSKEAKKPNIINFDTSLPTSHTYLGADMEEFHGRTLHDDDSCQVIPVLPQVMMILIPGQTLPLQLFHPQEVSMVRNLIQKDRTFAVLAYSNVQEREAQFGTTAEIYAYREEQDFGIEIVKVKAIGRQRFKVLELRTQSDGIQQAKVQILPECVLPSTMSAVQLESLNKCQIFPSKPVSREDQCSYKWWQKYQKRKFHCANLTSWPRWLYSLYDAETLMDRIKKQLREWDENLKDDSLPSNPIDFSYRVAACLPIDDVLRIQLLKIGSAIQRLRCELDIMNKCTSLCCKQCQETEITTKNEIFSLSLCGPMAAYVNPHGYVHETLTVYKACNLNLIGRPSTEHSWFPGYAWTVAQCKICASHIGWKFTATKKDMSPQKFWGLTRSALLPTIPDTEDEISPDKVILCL
Chain of CRBN/DDB1 (Q16531 whole entry partner): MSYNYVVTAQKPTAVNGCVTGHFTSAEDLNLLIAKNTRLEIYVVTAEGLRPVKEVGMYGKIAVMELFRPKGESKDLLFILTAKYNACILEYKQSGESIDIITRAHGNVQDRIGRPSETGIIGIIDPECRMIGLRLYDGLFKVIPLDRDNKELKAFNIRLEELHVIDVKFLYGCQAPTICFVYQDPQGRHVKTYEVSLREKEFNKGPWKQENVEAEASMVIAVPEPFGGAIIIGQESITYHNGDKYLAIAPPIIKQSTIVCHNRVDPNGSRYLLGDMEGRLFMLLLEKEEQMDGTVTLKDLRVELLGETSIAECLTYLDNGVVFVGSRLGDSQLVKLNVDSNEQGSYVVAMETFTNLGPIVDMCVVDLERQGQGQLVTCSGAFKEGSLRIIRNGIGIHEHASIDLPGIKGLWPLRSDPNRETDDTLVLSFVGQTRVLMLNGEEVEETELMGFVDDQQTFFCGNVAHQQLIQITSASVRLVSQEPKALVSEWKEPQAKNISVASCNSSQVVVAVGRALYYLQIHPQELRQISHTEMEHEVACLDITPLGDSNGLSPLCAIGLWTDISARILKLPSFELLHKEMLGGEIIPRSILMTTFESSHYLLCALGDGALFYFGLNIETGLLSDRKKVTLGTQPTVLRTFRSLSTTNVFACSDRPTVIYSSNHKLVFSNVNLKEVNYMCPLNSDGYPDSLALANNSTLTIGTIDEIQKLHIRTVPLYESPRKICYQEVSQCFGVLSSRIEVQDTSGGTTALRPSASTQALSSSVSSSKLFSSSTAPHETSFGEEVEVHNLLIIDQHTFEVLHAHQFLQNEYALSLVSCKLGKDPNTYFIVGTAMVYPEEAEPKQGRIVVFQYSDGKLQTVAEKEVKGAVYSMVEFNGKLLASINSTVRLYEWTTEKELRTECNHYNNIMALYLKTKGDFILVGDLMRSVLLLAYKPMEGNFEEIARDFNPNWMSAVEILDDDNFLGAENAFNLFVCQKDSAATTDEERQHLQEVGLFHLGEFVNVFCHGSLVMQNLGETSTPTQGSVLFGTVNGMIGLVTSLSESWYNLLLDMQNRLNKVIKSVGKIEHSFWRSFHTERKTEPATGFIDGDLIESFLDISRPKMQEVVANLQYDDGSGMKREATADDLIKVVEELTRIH
Chain of ER (P03372 whole entry): as the sequence (P03372 whole entry) above

With `C[C@@H]1Cc2c([nH]c3ccccc23)[C@@H](c2cnc(N3CCC(N4CCN(c5ccc(NC6CCC(=O)NC6=O)cc5F)CC4)CC3)nc2)N1CC(F)F` (stereo partly drawn) [Compound A1, 3-((4-(4-(1-(5-((1R,3R)-2-(2,2-difluoroethyl)-3-methyl-2,3,4,9-tetrahydro-1H-pyrido[3,4-b]indol-1-yl)pyrimidin-2-yl)piperidin-4-yl)piperazin-1-yl)-3-fluorophenyl)amino)piperidine-2,6-dione] the IC50 (CRBN/DDB1) was 0.5 to 5 µM.

In the case of `C[C@@H]1Cc2c([nH]c3ccccc23)[C@@H](c2cnc(N3CCC(N4CCC(c5ccc(NC6CCC(=O)NC6=O)cc5F)CC4)CC3)nc2)N1CC(F)F` (stereo partly drawn) [Compound A3, 3-((4-(1′-(5-((1R,3R)-2-(2,2-difluoroethyl)-3-methyl-2,3,4,9-tetrahydro-1H-pyrido[3,4-b]indol-1-yl)pyrimidin-2-yl)-[1,4′-bipiperidin]-4-yl)-3-fluorophenyl)amino)piperidine-2,6-dione], the IC50 (CRBN/DDB1) is reported as 0.05 to 0.5 µM.

`C[C@@H]1Cc2c([nH]c3ccccc23)[C@@H](c2cnc(N3C[C@@H]4[C@@H](CN5CCN6c7cc8c(cc7OC[C@@H]6C5)C(=O)N(C5CCC(=O)NC5=O)C8)[C@@H]4C3)nc2)N1CC(F)F` (stereo partly drawn) [Compound A4, (S)-3-((S)-3-(((1R,5S,6S)-3-(5-((1R,3R)-2-(2,2-difluoroethyl)-3-methyl-2,3,4,9-tetrahydro-1H-pyrido[3,4-b]indol-1-yl)pyrimidin-2-yl)-3-azabicyclo[3.1.0]hexan-6-yl)methyl)-8-oxo-1,2,3,4,4a,5,8,10-octahydro-9H-pyrazino[1′,2′:4,5][1,4]oxazino[2,3-f]isoindol-9-yl)piperidine-2,6-dione] gave an IC50 (CRBN/DDB1) of 0.5 to 5 µM.

With `C[C@@H]1Cc2c([nH]c3ccccc23)[C@@H](c2cnc(N3CCC4(CC3)CC(CN3CCN5c6ccc7c(c6OC[C@@H]5C3)CN(C3CCC(=O)NC3=O)C7=O)C4)nc2)N1CC(F)F` (stereo partly drawn) [Compound A6, 3-((S)-7-((7-(5-((1R,3R)-2-(2,2-difluoroethyl)-3-methyl-2,3,4,9-tetrahydro-1H-pyrido[3,4-b]indol-1-yl)pyrimidin-2-yl)-7-azaspiro[3.5]nonan-2-yl)methyl)-1-oxo-1,3,5,5a,6,7,8,9-octahydro-2H-pyrazino[1′,2′:4,5][1,4]oxazino[2,3-e]isoindol-2-yl)piperidine-2,6-dione] the IC50 (CRBN/DDB1) was < 0.05 µM.

Work on `COc1ccc(C(=O)N2CCC(CN3CCN(c4ncc([C@@H]5c6[nH]c7ccccc7c6C[C@@H](C)N5CC(F)F)cn4)CC3)CC2)cc1N1CCC(=O)NC1=O` [Compound A7, 1-(5-(4-((4-(5-((1R,3R)-2-(2,2-difluoroethyl)-3-methyl-2,3,4,9-tetrahydro-1H-pyrido[3,4-b]indol-1-yl)pyrimidin-2-yl)piperazin-1-yl)methyl)piperidine-1-carbonyl)-2-methoxyphenyl) dihydropyrimidine-2,4(1H,3H)-dione] yielded an IC50 (CRBN/DDB1) of 0.5 to 5 µM.

For `CS(=O)(=O)N1CCc2c([nH]c3ccccc23)[C@H]1c1c(F)cc(N2CCC3(CCN(C(=O)CN4Cc5cc6c(cc5C4)C(=O)N(C4CCC(=O)NC4=O)C6=O)CC3)CC2)cc1F` (stereo partly drawn) [Compound A8, 6-(2-(9-(3,5-difluoro-4-((R)-2-(methylsulfonyl)-2,3,4,9-tetrahydro-1H-pyrido[3,4-b]indol-1-yl)phenyl)-3,9-diazaspiro[5.5]undecan-3-yl)-2-oxoethyl)-2-(2,6-dioxopiperidin-3-yl)-6,7-dihydropyrrolo[3,4-f]isoindole-1,3(2H,5H)-dione], the IC50 (CRBN/DDB1) was > 5 µM.

With `C[C@@H]1Cc2c([nH]c3ccccc23)[C@@H](c2cnc(N3C[C@@H]4[C@H](CN5CCN6c7cc8c(cc7OC[C@@H]6C5)C(=O)N([C@H]5CCC(=O)NC5=O)C8)[C@@H]4C3)nc2)N1CC(C)(C)F` [Compound A13, (S)-3-((S)-3-(((1R,5S,6R)-3-(5-((1R,3R)-2-(2-fluoro-2-methylpropyl)-3-methyl-2,3,4,9-tetrahydro-1H-pyrido[3,4-b]indol-1-yl)pyrimidin-2-yl)-3-azabicyclo[3.1.0]hexan-6-yl)methyl)-8-oxo-1,2,3,4,4a,5,8,10-octahydro-9H-pyrazino[1′,2′:4,5][1,4]oxazino[2,3-f]isoindol-9-yl)piperidine-2,6-dione] the IC50 (CRBN/DDB1) was 0.05 to 0.5 µM.

In the case of `C[C@@H]1Cc2c([nH]c3ccccc23)[C@@H](c2cnc(N3CC[C@@H](CN4CCN5c6ccc7c(c6OC[C@@H]5C4)CN(C4CCC(=O)NC4=O)C7=O)C3)nc2)N1CC(F)F` (stereo partly drawn) [Compound A14, 3-((S)-7-(((S)-1-(5-((1R,3R)-2-(2,2-difluoroethyl)-3-methyl-2,3,4,9-tetrahydro-1H-pyrido[3,4-b]indol-1-yl)pyrimidin-2-yl)pyrrolidin-3-yl)methyl)-1-oxo-1,3,5,5a,6,7,8,9-octahydro-2H-pyrazino[1′,2′:4,5][1,4]oxazino[2,3-e]isoindol-2-yl)piperidine-2,6-dione], the IC50 (CRBN/DDB1) is reported as < 0.05 µM.

For `Cc1nn(C2CCC(=O)NC2=O)c2ccc(N3CCN(CC4CC5(CCN(c6ncc([C@@H]7c8[nH]c9ccccc9c8C[C@@H](C)N7CC(C)(C)F)cn6)CC5)C4)CC3)cc12` (stereo partly drawn) [Compound A15, 3-(5-(4-((7-(5-((1R,3R)-2-(2-fluoro-2-methylpropyl)-3-methyl-2,3,4,9-tetrahydro-1H-pyrido[3,4-b]indol-1-yl)pyrimidin-2-yl)-7-azaspiro[3.5]nonan-2-yl)methyl)piperazin-1-yl)-3-methyl-1H-indazol-1-yl)piperidine-2,6-dione], the IC50 (CRBN/DDB1) was < 0.05 µM.

With `COc1cc(N2CCC(CN3CCN4c5cc6c(cc5OC[C@H]4C3)C(=O)N([C@@H]3CCC(=O)NC3=O)C6)CC2)ccc1[C@@H]1c2[nH]c3ccccc3c2C[C@@H](C)N1CC(F)F` [Compound A48, (R)-3-((R)-3-((1-(4-((1R,3R)-2-(2,2-difluoroethyl)-3-methyl-2,3,4,9-tetrahydro-1H-pyrido[3,4-b]indol-1-yl)-3-methoxyphenyl)piperidin-4-yl)methyl)-8-oxo-1,2,3,4,4a,5,8,10-octahydro-9H-pyrazino[1′,2′:4,5][1,4]oxazino[2,3-f]isoindol-9-yl)piperidine-2,6-dione] the DC50 (ER in T47D cells; T47D cells, 16 hrs treatment) was < 0.001 µM, the Dmax (ER in T47D cells; maximal ER degradation, T47D cells, 16 hrs treatment) was > 75% and the DC50 (ER in MCF-7 cells) was < 0.001 µM. The Dmax (ER in MCF-7 cells) was > 75%.

With `C[C@H]1Cc2c([nH]c3ccccc23)[C@H](c2cnc(N3CCC4(CC3)C[C@@H](CN3CCN5c6cc7c(cc6OC[C@@H]5C3)C(=O)N([C@@H]3CCC(=O)NC3=O)C7)CO4)nc2)N1CC(F)F` [Compound A68, (R)-3-((S)-3-(((S)-8-(5-((1S,3S)-2-(2,2-difluoroethyl)-3-methyl-2,3,4,9-tetrahydro-1H-pyrido[3,4-b]indol-1-yl)pyrimidin-2-yl)-1-oxa-8-azaspiro[4.5]decan-3-yl)methyl)-8-oxo-1,2,3,4,4a,5,8,10-octahydro-9H-pyrazino[1′,2′:4,5][1,4]oxazino[2,3-f]isoindol-9-yl)piperidine-2,6-dione] the DC50 (ER in T47D cells; T47D cells, 16 hrs treatment) was < 0.001 µM, the Dmax (ER in T47D cells) was > 75% and the DC50 (ER in MCF-7 cells) was < 0.001 µM. The Dmax (ER in MCF-7 cells) was 50 to 75%.

Compound `COc1cc(N2CC3(CCC(CN4CCN5c6cc7c(cc6OC[C@@H]5C4)C(=O)N(C4CCC(=O)NC4=O)C7)CO3)C2)ccc1[C@@H]1c2[nH]c3ccccc3c2C[C@@H](C)N1CC(F)F` (stereo partly drawn) [Compound B278, 3-((4aS)-3-((2-(4-((1R,3R)-2-(2,2-difluoroethyl)-3-methyl-2,3,4,9-tetrahydro-1H-pyrido[3,4-b]indol-1-yl)-3-methoxyphenyl)-5-oxa-2-azaspiro[3.5]nonan-7-yl)methyl)-8-oxo-1,2,3,4,4a,5,8,10-octahydro-9H-pyrazino[1′,2′:4,5][1,4]oxazino[2,3-f]isoindol-9-yl)piperidine-2,6-dione] has an IC50 [1] of 0.001 to 0.01 µM and a DC50 (ER) of 0.01 to 0.1 µM.
